pIC50: −log10 of the molar value. *1 amine or outer side, *2 acyl side, *3 side chain or, on linkers, in order; H or OH if unused. Where a SMILES comes first, the peptide text is derived from it. Bridges are numbered along the chain shown (N, C = ends). Roman numbers before positions name the chains, in order. Side-chain parts run from the residue outwards. [ ]: non-standard residue; d: D form. The star is where a group is joined. C18 diacid = O=C(O)CCCCCCCCCCCCCCCCC(=O)*; γGlu = O=C(O)[C@H](CCC(=O)[*:2])N[*:1]; Desaminohistidyl = O=C(CCc1c[nH]cn1)*; Ac4c = NC1(C(=O)O)CCC1; AEEA = NCCOCCOCC(=O)O; Aib = CC(C)(N)C(=O)O
Assays:
human GLP-1 receptor = molecular target: T1, human GLP-1 receptor (Homo sapiens, UniProt P43220); assay: Assay (II)(a): GLP-1 receptor binding, [125I]GLP-1 displacement, SPA on BHK membranes; details: displacement of [125I]GLP-1, membranes with human GLP-1 receptor; read-out: IC50 GLP-1R
T1 construct: expressed in transfected cells; host or cells: membranes of BHK cells, parent line BHKTS13, clone FCW467-12A
T1 sequence (P43220 24-463): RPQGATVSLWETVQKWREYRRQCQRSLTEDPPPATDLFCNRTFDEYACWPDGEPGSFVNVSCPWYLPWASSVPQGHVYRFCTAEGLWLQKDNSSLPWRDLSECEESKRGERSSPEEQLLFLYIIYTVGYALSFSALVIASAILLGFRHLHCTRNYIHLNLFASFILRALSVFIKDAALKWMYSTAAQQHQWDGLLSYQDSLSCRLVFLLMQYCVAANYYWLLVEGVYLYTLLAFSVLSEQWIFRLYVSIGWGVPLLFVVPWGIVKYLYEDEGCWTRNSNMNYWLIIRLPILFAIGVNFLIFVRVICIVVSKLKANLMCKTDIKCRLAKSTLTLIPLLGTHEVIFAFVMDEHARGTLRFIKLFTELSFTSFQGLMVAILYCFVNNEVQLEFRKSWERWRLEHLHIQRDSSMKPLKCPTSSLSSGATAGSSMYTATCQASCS
In short: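 Membranes from BHK cells expressing human GLP-1 receptor with WGA SPA beads, [125I]GLP-1(7-36)NH2 (480 pM added solution) and compound in HEPES pH 7.4 buffer with EGTA, MgCl2, Tween 20. Incubated 2 h at 30° C; SPA counts fitted by non-linear regression to IC50 in nM.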

[1] = Assay (V): chemical stability assessment by RP-UPLC; assay type: physicochemical; details: 14 days at 37° C. in phosphate buffer (pH 7.3)
In short: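 Lyophilized peptide dissolved in 8 mM phosphate pH 8.6, adjusted to pH 7.3, final 333 μM, held 14 days at 5° C and 37° C. Purity is main-peak area % by RP-UPLC with UV detection at 215 nm. Degradation is the 5° C minus 37° C purity difference divided by the 5° C purity.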

pIC50 (human GLP-1 receptor)	Chemical stability: Chemical degradation over 14 days at 37° C. [1] [%]	Compound
10.00	0.2	CC[C@H](C)[C@H](NC(=O)[C@H](Cc1ccccc1)NC(=O)[C@H](CCC(=O)O)NC(=O)[C@H](CCCNC(=N)N)NC(=O)[C@H](C)NC(=O)[C@H](C)NC(=O)[C@H](CCC(N)=O)NC(=O)[C@H](CCC(=O)O)NC(=O)[C@H](CCC(=O)O)NC(=O)[C@H](CC(C)C)NC(=O)[C@H](Cc1ccc(O)cc1)NC(=O)[C@H](CCCCN)NC(=O)[C@H](CO)NC(=O)[C@@H](NC(=O)[C@H](CC(=O)O)NC(=O)[C@H](CO)NC(=O)[C@@H](NC(=O)[C@H](Cc1ccccc1)NC(=O)[C@@H](NC(=O)CNC(=O)[C@H](Cc1c[nH]cn1)NC(=O)C1(NC(=O)CCc2c[nH]cn2)CCC1)[C@@H](C)O)[C@@H](C)O)C(C)C)C(=O)N[C@@H](C)C(=O)N[C@@H](Cc1c[nH]c2ccccc12)C(=O)N[C@@H](CC(C)C)C(=O)N[C@@H](CC(C)C)C(=O)N[C@@H](CCCCNC(=O)CNC(=O)[C@H](CO)NC(=O)[C@H](CCC(=O)O)NC(=O)CNC(=O)[C@H](CO)NC(=O)CC[C@H](NC(=O)CC[C@H](NC(=O)CCCCCCCCCCCCCCCCC(=O)O)C(=O)O)C(=O)O)C(=O)N[C@H](C(N)=O)[C@@H](C)O [Example 9, N^ε34-[2-[[(2S)-2-[[(2S)-4-carboxy-2-[[2-[[(2S)-2-[[(4S)-4-carboxy-4-[[(4S)-4-carboxy-4-(17-carboxyheptadecanoylamino)butanoyl]amino]butanoyl]amino]-3-hydroxypropanoyl]amino]acetyl]amino]butanoyl]amino]-3-hydroxypropanoyl]amino]acetyl]-[Imp7,Acb8,His9,Lys18,Glu22,Arg26,Leu33,Thr35]-GLP-1-(7-35)-peptide amide] (I: Desaminohistidyl-[Ac4c]HGTFTSDVSKYLEEQAAREFIAWLLKT-NH2 / II: {C18 diacid-γGlu-γGlu}-SGESG; amide I:27-II:C)
9.00	2.0	CC[C@H](C)[C@H](NC(=O)[C@H](Cc1ccccc1)NC(=O)[C@H](CCC(=O)O)NC(=O)[C@H](CCCNC(=N)N)NC(=O)[C@H](C)NC(=O)[C@H](C)NC(=O)[C@H](CCCNC(=N)N)NC(=O)CNC(=O)[C@H](CCC(=O)O)NC(=O)[C@H](CC(C)C)NC(=O)[C@H](Cc1ccc(O)cc1)NC(=O)[C@H](CCCCN)NC(=O)[C@H](CO)NC(=O)[C@@H](NC(=O)[C@H](CC(=O)O)NC(=O)[C@H](CO)NC(=O)[C@@H](NC(=O)[C@H](Cc1ccccc1)NC(=O)[C@@H](NC(=O)CNC(=O)[C@H](Cc1c[nH]cn1)NC(=O)[C@H](C)NC(=O)CCc1c[nH]cn1)[C@@H](C)O)[C@@H](C)O)C(C)C)C(=O)N[C@@H](C)C(=O)N[C@@H](Cc1c[nH]c2ccccc12)C(=O)N[C@@H](CC(C)C)C(=O)N[C@@H](CC(C)C)C(=O)N[C@@H](CCCCNC(=O)COCCOCCNC(=O)COCCOCCNC(=O)CC[C@H](NC(=O)CC[C@H](NC(=O)CC[C@H](NC(=O)CCCCCCCCCCCCCCCCC(=O)O)C(=O)O)C(=O)O)C(=O)O)C(=O)N[C@H](C(N)=O)[C@@H](C)O [Example 10, N^ε34-[2-[2-[2-[[2-[2-[2-[[(4S)-4-carboxy-4-[[(4S)-4-carboxy-4-[[(4S)-4-carboxy-4-(17-carboxyheptadecanoylamino)butanoyl]amino]butanoyl]amino]butanoyl]amino]ethoxy]ethoxy]acetyl]amino]ethoxy]ethoxy]acetyl]-[Imp7,His9,Lys18,Arg23,Arg26,Leu33,Thr35]-GLP-1-(7-35)-peptide amide] (Desaminohistidyl-AHGTFTSDVSKYLEGRAAREFIAWLLK([AEEA-AEEA-γGlu-γGlu-γGlu-C18 diacid])T-NH2)
9.15	4.4	CC[C@H](C)[C@H](NC(=O)[C@H](Cc1ccccc1)NC(=O)[C@H](CCC(=O)O)NC(=O)[C@H](CCCNC(=N)N)NC(=O)[C@H](C)NC(=O)[C@H](C)NC(=O)[C@H](CCC(N)=O)NC(=O)[C@H](CCC(=O)O)NC(=O)[C@H](CCC(=O)O)NC(=O)[C@H](CC(C)C)NC(=O)[C@H](Cc1ccc(O)cc1)NC(=O)[C@H](CCCCN)NC(=O)[C@H](CO)NC(=O)[C@@H](NC(=O)[C@H](CC(=O)O)NC(=O)[C@H](CO)NC(=O)[C@@H](NC(=O)[C@H](Cc1ccccc1)NC(=O)[C@@H](NC(=O)CNC(=O)[C@H](Cc1c[nH]cn1)NC(=O)C(C)(C)NC(=O)CCc1c[nH]cn1)[C@@H](C)O)[C@@H](C)O)C(C)C)C(=O)N[C@@H](C)C(=O)N[C@@H](Cc1c[nH]c2ccccc12)C(=O)N[C@@H](CC(C)C)C(=O)N[C@@H](CC(C)C)C(=O)N[C@@H](CCCCNC(=O)COCCOCCNC(=O)COCCOCCNC(=O)CC[C@H](NC(=O)CCCCCCCCCCCCCCCCC(=O)O)C(=O)O)C(=O)N[C@H](C(N)=O)[C@@H](C)O [Example 12, N^ε34-[2-[2-[2-[[2-[2-[2-[[(4S)-4-carboxy-4-(17-carboxyheptadecanoylamino)butanoyl]amino]ethoxy]ethoxy]acetyl]amino]ethoxy]ethoxy]acetyl]-[Imp7,Aib8,His9,Lys18,Glu22,Arg26,Leu33,Thr35]-GLP-1-(7-35)-peptide amide] (Desaminohistidyl-[Aib]HGTFTSDVSKYLEEQAAREFIAWLLK([AEEA-AEEA-γGlu-C18 diacid])T-NH2)
9.52	0.4	CC[C@H](C)[C@H](NC(=O)[C@H](Cc1ccccc1)NC(=O)[C@H](CCC(=O)O)NC(=O)[C@H](CCCNC(=N)N)NC(=O)[C@H](C)NC(=O)[C@H](C)NC(=O)[C@H](CCCNC(=N)N)NC(=O)CNC(=O)[C@H](CCC(=O)O)NC(=O)[C@H](CC(C)C)NC(=O)[C@H](Cc1ccc(O)cc1)NC(=O)[C@H](CCCCN)NC(=O)[C@H](CO)NC(=O)[C@@H](NC(=O)[C@H](CC(=O)O)NC(=O)[C@H](CO)NC(=O)[C@@H](NC(=O)[C@H](Cc1ccccc1)NC(=O)[C@@H](NC(=O)CNC(=O)[C@H](Cc1c[nH]cn1)NC(=O)C1(NC(=O)CCc2c[nH]cn2)CCC1)[C@@H](C)O)[C@@H](C)O)C(C)C)C(=O)N[C@@H](C)C(=O)N[C@@H](Cc1c[nH]c2ccccc12)C(=O)N[C@@H](CC(C)C)C(=O)N[C@@H](CC(C)C)C(=O)N[C@@H](CCCCNC(=O)CNC(=O)[C@H](CO)NC(=O)[C@H](CCC(=O)O)NC(=O)CNC(=O)[C@H](CO)NC(=O)CC[C@H](NC(=O)CC[C@H](NC(=O)CCCCCCCCCCCCCCCCC(=O)O)C(=O)O)C(=O)O)C(=O)N[C@H](C(N)=O)[C@@H](C)O [Example 20, N^ε34-[2-[[(2S)-2-[[(2S)-4-carboxy-2-[[2-[[(2S)-2-[[(4S)-4-carboxy-4-[[(4S)-4-carboxy-4-(17-carboxyheptadecanoylamino)butanoyl]amino]butanoyl]amino]-3-hydroxypropanoyl]amino]acetyl]amino]butanoyl]amino]-3-hydroxypropanoyl]amino]acetyl]-[Imp7,Acb8,His9,Lys18,Arg23,Arg26,Leu33,Thr35]-GLP-1-(7-35)-peptide amide] (I: Desaminohistidyl-[Ac4c]HGTFTSDVSKYLEGRAAREFIAWLLKT-NH2 / II: {C18 diacid-γGlu-γGlu}-SGESG; amide I:27-II:C)
9.52	0.1	CC[C@H](C)[C@H](NC(=O)[C@H](Cc1ccccc1)NC(=O)[C@H](CCC(=O)O)NC(=O)[C@H](CCCNC(=N)N)NC(=O)[C@H](C)NC(=O)[C@H](C)NC(=O)[C@H](CCCNC(=N)N)NC(=O)[C@H](C)NC(=O)[C@H](CCC(=O)O)NC(=O)[C@H](CC(C)C)NC(=O)[C@H](Cc1ccc(O)cc1)NC(=O)[C@H](CCCCN)NC(=O)[C@H](CO)NC(=O)[C@@H](NC(=O)[C@H](CC(=O)O)NC(=O)[C@H](CO)NC(=O)[C@@H](NC(=O)[C@H](Cc1ccccc1)NC(=O)[C@@H](NC(=O)CNC(=O)[C@H](Cc1c[nH]cn1)NC(=O)C(C)(C)NC(=O)CCc1c[nH]cn1)[C@@H](C)O)[C@@H](C)O)C(C)C)C(=O)N[C@@H](C)C(=O)N[C@@H](Cc1c[nH]c2ccccc12)C(=O)N[C@@H](CC(C)C)C(=O)N[C@@H](CC(C)C)C(=O)N[C@@H](CCCCNC(=O)CC[C@H](NC(=O)COCCOCCNC(=O)COCCOCCNC(=O)CC[C@H](NC(=O)CC[C@H](NC(=O)CCCCCCCCCCCCCCCCC(=O)O)C(=O)O)C(=O)O)C(=O)O)C(=O)NCC(=O)NCC(=O)NCC(=O)O [Example 31, N^ε34-[(4S)-4-carboxy-4-[[2-[2-[2-[[2-[2-[2-[[(4S)-4-carboxy-4-[[(4S)-4-carboxy-4-(17-carboxyheptadecanoylamino)butanoyl]amino]butanoyl]amino]ethoxy]ethoxy]acetyl]amino]ethoxy]ethoxy]acetyl]amino]butanoyl]-[Imp7,Aib8,His9,Lys18,Ala22,Arg23,Arg26,Leu33,Gly36]-GLP-1-(7-37)-peptide] (Desaminohistidyl-[Aib]HGTFTSDVSKYLEARAAREFIAWLLK([γGlu-AEEA-AEEA-γGlu-γGlu-C18 diacid])GGG-OH)

Source: patent US9988430B2, “Stable GLP-1 based GLP-1/glucagon receptor co-agonists” (Novo Nordisk A/S, priority 2014, dated 2018)
